What all share (format): biochemical
Test [1] addresses Xa (Homo sapiens, UniProt P00742). Briefly: Determination of inhibition constants for Xa. The method, then: (§1) The inhibitory effect for the individual enzymes was determined in analogy to a previously disclosed method (Stürzebecher et al., 1997).
(§2) For zero order kinetics, the reaction was stopped after 20 min by adding 25 μl of acetic acid (50% v/v), and the absorption at 405 nm was determined using a Microplate Reader (Multiscan Ascent, from Thermo). In the case of pseudo-first order kinetics, the reaction rates in the equilibrium state were ascertained by recording the reaction kinetics. The Ki values were ascertained either in accordance with Dixon (1953) by linear regression using a computer program or by parameter fitting in accordance with the rate equation for competitive inhibition. The Ki values are the average of at least two determinations.

Test [2] has as its target Thrombin (Homo sapiens, UniProt P00734). Briefly: Determination of inhibition constants for thrombin. On the procedure:
as §1, §2

Test [3] concerns the target plasmin (Homo sapiens, UniProt P00747). Briefly: Determination of inhibition constants for plasmin. Set-up: purchased Calbiochem. On the procedure: as §1, §2
Test [4] has as its target plasma kallikrein (Homo sapiens, UniProt P03952). The test can be described thus: Determination of inhibition constants for PK. Set-up: purchased Enzyme Research Lab. / Enzyme Research Laboratories. The method, then: as §1, §2
[5] abbreviates: 25° C., substrate Chromozym PL, pH 8.0, read-out: Plasmin [Ki].
Where [6] appears, read: 25° C., substrate S2302, pH 8.0, read-out: PK [Ki].
The mark [7] stands for this setting: summary of results, read-out: Ki value of the plasmin inhibition.
The mark [8] stands for this setting: summary of results, read-out: Ki value of the plasma kallikrein inhibition.

The term Ki denotes a measure of affinity in units of concentration, obtained from inhibition or displacement.

Like-named read-outs stand apart in the source and are kept apart here. A value given as a limit tells only on which side of the number the result lay.

Chain of plasma kallikrein (P03952 391-638 limits assumed): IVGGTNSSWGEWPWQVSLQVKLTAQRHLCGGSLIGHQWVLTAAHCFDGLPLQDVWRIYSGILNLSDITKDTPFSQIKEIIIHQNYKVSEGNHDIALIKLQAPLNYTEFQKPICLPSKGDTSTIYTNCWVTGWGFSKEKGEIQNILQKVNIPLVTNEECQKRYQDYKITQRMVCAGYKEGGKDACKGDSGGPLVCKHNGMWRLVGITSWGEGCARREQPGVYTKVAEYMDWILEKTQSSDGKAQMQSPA
Chain of plasma kallikrein (P03952 20-390 partner limits assumed): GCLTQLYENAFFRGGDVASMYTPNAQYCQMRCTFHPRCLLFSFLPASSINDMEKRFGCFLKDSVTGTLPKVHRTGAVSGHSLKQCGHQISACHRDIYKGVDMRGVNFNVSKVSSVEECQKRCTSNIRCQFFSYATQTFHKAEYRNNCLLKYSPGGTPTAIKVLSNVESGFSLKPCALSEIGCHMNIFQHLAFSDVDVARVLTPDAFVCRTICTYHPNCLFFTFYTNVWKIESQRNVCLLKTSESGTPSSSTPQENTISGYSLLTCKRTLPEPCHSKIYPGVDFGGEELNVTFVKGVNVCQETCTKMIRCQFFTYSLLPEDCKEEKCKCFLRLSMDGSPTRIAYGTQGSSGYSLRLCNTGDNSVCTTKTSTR
Chain of plasmin (P00747 581-810 limits assumed): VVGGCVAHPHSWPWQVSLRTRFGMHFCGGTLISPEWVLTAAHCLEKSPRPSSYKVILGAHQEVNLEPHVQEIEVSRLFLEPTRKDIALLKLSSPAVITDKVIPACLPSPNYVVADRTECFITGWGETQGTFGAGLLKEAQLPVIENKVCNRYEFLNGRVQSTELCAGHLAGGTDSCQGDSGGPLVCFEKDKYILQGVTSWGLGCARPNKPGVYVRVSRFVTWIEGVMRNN
Chain of plasmin (P00747 97-580 partner limits assumed): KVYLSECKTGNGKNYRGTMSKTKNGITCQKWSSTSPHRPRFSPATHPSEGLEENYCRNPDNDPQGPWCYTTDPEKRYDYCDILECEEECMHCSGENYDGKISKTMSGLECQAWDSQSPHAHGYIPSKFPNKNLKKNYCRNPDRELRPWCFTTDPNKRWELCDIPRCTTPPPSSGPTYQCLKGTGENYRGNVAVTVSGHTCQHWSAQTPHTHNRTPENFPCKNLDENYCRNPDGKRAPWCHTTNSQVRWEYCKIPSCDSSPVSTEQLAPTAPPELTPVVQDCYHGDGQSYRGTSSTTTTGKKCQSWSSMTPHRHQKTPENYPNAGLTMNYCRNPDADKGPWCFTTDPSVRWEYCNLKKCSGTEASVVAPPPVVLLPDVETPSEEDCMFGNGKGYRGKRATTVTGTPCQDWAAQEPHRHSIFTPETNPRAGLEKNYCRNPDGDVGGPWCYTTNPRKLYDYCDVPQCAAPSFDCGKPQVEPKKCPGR
Chain of Xa (P00742 235-488 limits assumed): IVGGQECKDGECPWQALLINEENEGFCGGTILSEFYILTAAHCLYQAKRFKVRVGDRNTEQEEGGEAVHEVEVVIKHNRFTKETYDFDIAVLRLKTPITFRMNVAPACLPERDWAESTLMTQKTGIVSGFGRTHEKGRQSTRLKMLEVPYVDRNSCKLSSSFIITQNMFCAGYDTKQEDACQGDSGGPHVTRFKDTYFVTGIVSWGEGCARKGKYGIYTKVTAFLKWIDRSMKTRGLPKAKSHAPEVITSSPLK
Chain of Xa (P00742 41-179 limits assumed): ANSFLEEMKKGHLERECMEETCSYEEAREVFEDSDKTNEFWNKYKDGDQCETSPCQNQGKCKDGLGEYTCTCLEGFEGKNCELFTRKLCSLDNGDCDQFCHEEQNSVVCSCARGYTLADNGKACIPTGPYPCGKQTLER

Turning to `Cc1ccc(CCC[C@@H](NS(=O)(=O)Cc2ccccc2)C(=O)N[C@@H](Cc2cccc(CN)c2)C(=O)NCc2ccc(C(=N)N)cc2)cc1` [compound 9], the Ki in test [1] is less than 100 nM; in test [2], less than 1000 nM; in test [3] (setting [5]) it was less than 10 nM; in test [4] (setting [6]), less than 10 nM.

For `N=C(N)c1ccc(CNC(=O)[C@H](Cc2ccc(CN)cc2)NC(=O)[C@@H](CCCc2ccccc2)NS(=O)(=O)Cc2ccccc2)cc1` [compound 28], the Ki is less than 1000 nM in test [1], less than 1000 nM in test [2], less than 10 nM in test [3] (setting [5]) and less than 10 nM in test [4] (setting [6]).

For the compound `N=C(N)c1ccc(CNC(=O)[C@H](CCc2ccccc2)NC(=O)[C@@H](CCCc2ccncc2)NS(=O)(=O)Cc2ccccc2)cc1` [compound 49], the Ki in test [1] was less than 100 nM; in test [2], less than 100 nM; in test [3] (setting [5]), less than 10 nM; in test [4] (setting [6]), less than 10 nM.

As for `N=C(N)c1ccc(CNC(=O)[C@H](CCc2ccncc2)NC(=O)[C@@H](CCc2ccc(O)cc2)NS(=O)(=O)Cc2ccccc2)cc1` [compound 47], the Ki in test [1], in test [2], in test [3] (setting [5]) and in test [4] (setting [6]) was less than 10 nM throughout.

Consider `N=C(N)c1ccc(CNC(=O)[C@H](Cc2cccc(CN)c2)NC(=O)[C@@H](Cc2ccc(-c3ccccc3)cc2)NS(=O)(=O)Cc2ccccc2)cc1` [compound 14], for which the Ki in test [1] was less than 100 nM; in test [2] it was less than 1000 nM; in test [3] (setting [5]), less than 10 nM; in test [3] (setting [7]), less than 5 nM; in test [4] (setting [6]), less than 10 nM.

Regarding `N=C(N)c1ccc(CNC(=O)[C@H](Cc2cccc(CN)c2)NC(=O)[C@@H](CCCc2ccc(Cl)cc2)NS(=O)(=O)Cc2ccccc2)cc1` [compound 7], the Ki in test [1] is less than 10 nM; in test [2], less than 100 nM; in test [3] (setting [5]) it was less than 10 nM; in test [4] (setting [6]), less than 10 nM.

As to `N=C(N)c1ccc(CNC(=O)[C@H](CCc2cc[n+]([O-])cc2)NC(=O)[C@@H](CCCc2ccccc2)NS(=O)(=O)Cc2cccc(C(=O)O)c2)cc1` [compound 42], the inhibition constant (Ki) in test [1] is greater than 1000 nM; in test [2], less than 1000 nM; in test [3] (setting [5]) it was less than 100 nM; in test [4] (setting [6]), less than 10 nM.

As to `COC(=O)c1ccc(CS(=O)(=O)N[C@H](COC(C)(C)C)C(=O)N[C@@H](Cc2cccc(CN)c2)C(=O)NCc2ccc(C(=N)N)cc2)cc1` [compound 64], the Ki in test [1] was greater than 1000 nM; in test [2], greater than 1000 nM; in test [3] (setting [5]), less than 10 nM; in test [4] (setting [6]) it was less than 10 nM; in test [4] (setting [8]) it was less than 1 nM.

Regarding `N=C(N)c1ccc(CNC(=O)[C@H](Cc2cccc(CN)c2)NC(=O)[C@@H](CCCCN)NS(=O)(=O)Cc2ccccc2)cc1` [compound 59], the Ki in test [1] was less than 1000 nM; in test [2] it was greater than 1000 nM; in test [3] (setting [5]), less than 100 nM; in test [4] (setting [6]) it was less than 10 nM.

For `COc1ccc(CCC[C@@H](NS(=O)(=O)Cc2ccccc2)C(=O)N[C@@H](Cc2cccc(CN)c2)C(=O)NCc2ccc(C(=N)N)cc2)cc1` [compound 10], the Ki in test [1] was less than 100 nM; in test [2] it was less than 1000 nM; in test [3] (setting [5]), less than 10 nM; in test [4] (setting [6]), less than 10 nM.

In the case of `CC(C)(C)OC(=O)NC[C@@H](NS(=O)(=O)Cc1ccccc1)C(=O)N[C@@H](Cc1cccc(CN)c1)C(=O)NCc1ccc(C(=N)N)cc1` [compound 60], the inhibition constant (Ki) in test [1] was less than 1000 nM; in test [2], greater than 1000 nM; in test [3] (setting [5]), less than 100 nM; in test [4] (setting [6]), less than 10 nM.

For the compound `N=C(N)c1ccc(CNC(=O)[C@H](Cc2cccc(CN)c2)NC(=O)[C@@H](CCCc2ccc(OC(F)(F)F)cc2)NS(=O)(=O)Cc2ccccc2)cc1` [compound 12], the Ki in test [1] is less than 100 nM; in test [2], less than 1000 nM; in test [3] (setting [5]), less than 10 nM; in test [4] (setting [6]), less than 10 nM.

On to `CC(C)(C)c1ccc(C[C@@H](NS(=O)(=O)Cc2ccccc2)C(=O)N[C@@H](Cc2cccc(CN)c2)C(=O)NCc2ccc(C(=N)N)cc2)cc1` [compound 13], for which the Ki in test [1] was less than 100 nM; in test [2], less than 1000 nM; in test [3] (setting [5]) it was less than 100 nM; in test [3] (setting [7]) it was less than 5 nM; in test [4] (setting [6]), less than 10 nM.

On to `N=C(N)c1ccc(CNC(=O)[C@H](CCc2ccccc2)NC(=O)[C@@H](CCc2ccc(O)cc2)NS(=O)(=O)Cc2ccccc2)cc1` [compound 27], for which the Ki in test [1] is less than 10 nM; in test [2], less than 1000 nM; in test [3] (setting [5]), less than 10 nM; in test [4] (setting [6]) it was less than 10 nM; in test [4] (setting [8]) it was less than 1 nM.

As to `N=C(N)c1ccc(CNC(=O)[C@H](Cc2cccc(CN)c2)NC(=O)[C@@H](Cc2cccc3ccccc23)NS(=O)(=O)Cc2ccc(C(=O)O)cc2)cc1` [compound 16], the Ki in test [1] was less than 1000 nM; in test [2] it was less than 1000 nM; in test [3] (setting [5]), less than 10 nM; in test [4] (setting [6]), less than 10 nM.

For `CC(C)(C)OC(=O)NCCCC[C@@H](NS(=O)(=O)Cc1ccccc1)C(=O)N[C@@H](CCc1ccncc1)C(=O)NCc1ccc(C(=N)N)cc1` [compound 62], the Ki is less than 1000 nM in test [1], less than 1000 nM in test [2], less than 10 nM in test [3] (setting [5]) and less than 10 nM in test [4] (setting [6]).

As to `COC(=O)c1ccc(CS(=O)(=O)N[C@H](CO)C(=O)N[C@@H](Cc2cccc(CN)c2)C(=O)NCc2ccc(C(=N)N)cc2)cc1` [compound 69], the Ki was greater than 1000 nM in test [1], greater than 1000 nM in test [2], less than 100 nM in test [3] (setting [5]) and less than 10 nM in test [4] (setting [6]).

For the compound `N=C(N)c1ccc(CNC(=O)[C@H](Cc2cccc(CN)c2)NC(=O)[C@@H](Cc2ccc3ccccc3c2)NS(=O)(=O)Cc2ccccc2)cc1` [compound 17], the inhibition constant (Ki) in test [1] is less than 100 nM; in test [2], less than 1000 nM; in test [3] (setting [5]), less than 10 nM; in test [4] (setting [6]), less than 10 nM.

Regarding `N=C(N)c1ccc(CC[C@H](NC(=O)[C@@H](CO)NS(=O)(=O)Cc2ccccc2)C(=O)NCc2ccc(C(=N)N)cc2)cc1` [compound 78], the Ki in test [1] is greater than 1000 nM; in test [2], greater than 1000 nM; in test [3] (setting [5]) it was less than 100 nM; in test [4] (setting [6]), less than 10 nM.
